Earlier results in patent publication US9072749B2, “Treatment of age-related macular degeneration” (priority 2007, dated 2015).
Read-outs that look alike come from different tables or passages of the source. Values belong to the compound of their own block, whether it stands above or below them.

Legend:
[1] = test system: choroidal neovascularization; conditions: in vivo
[2] = test system: dogs; conditions: oral dosing in dogs
[3] = oral dosing in dogs
[4] = test system: D1/D5 receptor; conditions: anesthetized rabbits

SMILES: CC1=C(/C=C/C(C)=C/C=C/C(C)=C/C=C/C=C(C)/C=C/C=C(C)/C=C/C2=C(C)C(=O)C(O)CC2(C)C)C(C)(C)CC(O)C1=O (stereo not shown) [Astaxanthin]
choroidal neovascularization [1]: inhibit choroidal neovascularization

plasma fenoldopam (drug blood) level [3]: rapidly gives high drug blood level
SMILES: Oc1ccc(C2CNCCc3c2cc(O)c(O)c3Cl)cc1 (stereo not shown) [Fenoldopam]
duration of drug blood level and increase in renal blood flow ([2]; FIGS. 2a and 2b): relatively short duration

SMILES: CCNC(=O)Oc1ccc([C@H]2CNCCc3c2cc(OC(=O)NCC)c(OC(=O)NCC)c3Cl)cc1 [SKF 10508]
time for which the increase in renal blood flow is sustained ([2]; FIGS. 3A and 3B): greater than 6 hours
plasma fenoldopam (drug blood) level [3]: more gradual increase of drug blood level
plasma fenoldopam (drug blood) level ([3]; listed as SK&F 105058): release fenoldopam slowly after oral absorption

SMILES: NCCc1ccc(O)c(O)c1 [dopamine]
choroidal vasodilation [4]: caused choroidal vasodilation
